Data taken from PubChem BioAssay AID977630 (Broad Institute, 2014).
Results filed as inconclusive are left out. Active and inactive are the calls of the source.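 How the source made its calls: active means Normal-ribosome green reporter loss at least double humanized-ribosome red reporter loss, with overall culture growth inhibition under a set limit; inconclusive means no clear call, values can overlap the other calls; inactive means the rest.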

System: E. coli wild-type GFP growth, mixed culture, 24 h
Assay: E. coli growth inhibition, wild-type GFP versus H38 humanized RFP strain – H38 mutant RFP vs wild-type GFP, cherry-pick, dose response (AID 977630)
[1] = E. coli mixed culture total OD600 growth, 24 h

Cc1ccc(NS(=O)(=O)c2ccc3c(c2)CCC(=O)N3)cc1C
AC50: > 100 µM (inactive)

O=C(COC(=O)C1CC1)Nc1nc(-c2ccc(F)c(F)c2)cs1
AC50: > 100 µM (inactive)

CCCc1c(C(=O)Nc2ccc(OC)cc2)cnn1-c1ccccc1
AC50: > 100 µM (inactive) | AC50 [1]: > 100 µM

COc1ccc(OC)c(NC(=O)COC(=O)C2CCN(C(=O)c3ccc(Cl)cc3)CC2)c1
AC50: > 100 µM (inactive)

C[C@@H]1CCCCO[C@H](CN(C)C(=O)CCCN(C)C)[C@H](C)CN([C@@H](C)CO)C(=O)c2cc(NC(=O)Nc3cccc4ccccc34)ccc2O1
AC50 [1]: > 100 µM

CCOCCCNC(=O)C(NC(=O)c1ccccc1O)c1ccc(C)cc1 (stereo unspecified)
AC50: > 100 µM (inactive) | AC50 [1]: > 100 µM

Cc1nonc1C1CCCN1C(=O)c1cc(COc2ccc(F)cc2F)on1 (stereo unspecified)
AC50: > 100 µM (inactive)

CCOC(=O)C1(CCCc2ccccc2)CCN(C(=O)CCn2cncn2)CC1
AC50: > 100 µM (inactive)

O=C(c1ccc(N2CCCCC2)c([N+](=O)[O-])c1)N1CCN(c2ccccn2)CC1
AC50: > 100 µM (inactive) | AC50 [1]: > 100 µM

O=C(NCCCCc1ccccc1)c1cccc(NC(=O)C2CCCCC2)c1
AC50: > 100 µM (inactive) | AC50 [1]: > 100 µM

CCOc1ccc2nc(NC(=O)CSc3nc(SC)ns3)sc2c1
AC50: > 100 µM (inactive) | AC50 [1]: > 100 µM

CC(C)(C)N(Cc1ccccc1)C(=O)COC(=O)Cn1cnc2ccccc2c1=O
AC50: > 100 µM (inactive)

Cc1cccc(NC(=O)c2sc3nc(-c4ccccc4)cn3c2C)n1
AC50 [1]: > 100 µM

CCN(c1ccccc1)S(=O)(=O)c1ccc(Cl)c(NC(=O)CSc2n[nH]c(N)n2)c1
AC50: > 100 µM (inactive) | AC50 [1]: > 100 µM

Nc1ccccc1Nc1ccc([N+](=O)[O-])cc1[N+](=O)[O-]
AC50: > 100 µM (inactive)

Cc1[nH]nc2c1C(c1ccc(F)cc1)N(Cc1ccccc1)C2=O (stereo unspecified)
AC50: > 100 µM (inactive) | AC50 [1]: > 100 µM

CC(=O)c1c(C)nn(CC(O)COc2ccc3c(c2)CCC3)c1C (stereo unspecified)
AC50: > 100 µM (inactive) | AC50 [1]: > 100 µM

CC(=O)Nc1ccc(OCC(=O)N2CCC(Cc3ccccc3)CC2)cc1
AC50: > 100 µM (inactive)

COc1cc2cc(C(=O)Nc3ccc4c(c3)OCCO4)[nH]c2cc1OC
AC50: > 100 µM (inactive) | AC50 [1]: > 100 µM

O=C(c1cccs1)c1c[nH]cc1-c1ccccc1
AC50 [1]: > 100 µM

CN(CCOc1ccccc1)S(=O)(=O)c1ccccc1C#N
AC50: > 100 µM (inactive)

O=C(O)CC(CC(=O)Nc1ccc(Oc2ccccc2)cc1)c1ccccc1 (stereo unspecified)
AC50: > 100 µM (inactive) | AC50 [1]: > 100 µM

CS(=O)(=O)c1ccc(Cl)c(NC(=O)CSc2nncn2-c2ccccc2)c1
AC50: > 100 µM (inactive)

CCN(CC)C(=O)c1ccc(COc2ccccc2Cl)o1
AC50: > 100 µM (inactive) | AC50 [1]: > 100 µM

Cc1cc(C)n2nc(C(=O)Nc3cccc(S(=O)(=O)N(C)c4ccccc4)c3)nc2n1
AC50: > 100 µM (inactive)

COC(=O)c1ccsc1NC(=O)c1cccc(OC)c1
AC50 [1]: > 100 µM

CC(C)(C)c1ccc(-c2noc(CCC(=O)NCc3ccco3)n2)cc1
AC50: > 100 µM (inactive)

CCOC(=O)c1c(C)[nH]c(C)c1S(=O)(=O)NCCN1CCN(c2ccccc2F)CC1
AC50 [1]: > 100 µM

Cc1ccc(-c2cc(-c3ccc(C)cc3)[n+](-c3ccc(C(=O)[O-])cc3)c(-c3ccc(C)cc3)c2)cc1
AC50: > 100 µM (inactive)

CC(=O)N(CCC1(c2ccc(C)cc2)CCOC(C(C)C)C1)Cc1ccco1 (stereo unspecified)
AC50: > 100 µM (inactive)

C=CCN(c1ccccc1)S(=O)(=O)c1ccc(Cl)c(C(=O)OCC(=O)NCCCN2CCCC2=O)c1
AC50 [1]: > 100 µM

CCn1c(-c2ccccc2Cl)nn(CC(=O)Nc2ccccc2OC)c1=S
AC50: > 100 µM (inactive) | AC50 [1]: > 100 µM

O=c1[nH]nc(SCc2ccccc2)n1C1CC2C=CC1C2 (stereo unspecified)
AC50: > 100 µM (inactive) | AC50 [1]: 49.8 µM

CCCCn1c(NS(=O)(=O)c2ccc(C)cc2)c(C(=O)OCC)c2nc3ccccc3nc21
AC50: > 100 µM (inactive) | AC50 [1]: > 100 µM

O=C(O)c1ccc2c(c1)N(Cc1ccccc1)C(=O)c1ccccc1S2
AC50: > 100 µM (inactive) | AC50 [1]: > 100 µM

C[C@]12CCC(=O)C[C@H]1CC[C@@H]1[C@@H]2CC[C@]2(C)C(=O)CC[C@@H]12
AC50: > 100 µM (inactive)

O=C(CCNC(=O)c1ccco1)Nc1cccc(Br)c1
AC50: > 100 µM (inactive)

Cc1ccc(-n2nc(C)c3c(C)c(CCC(=O)O)c(C)nc32)cc1C
AC50: > 100 µM (inactive) | AC50 [1]: > 100 µM

COc1ccccc1CNC(=O)CN1C(=O)NC(c2ccccc2)(c2ccccc2)C1=O
AC50: > 100 µM (inactive) | AC50 [1]: > 100 µM

CC1Cc2ccccc2N1C(=O)CN1C(=O)NC(C)(CCc2ccccc2)C1=O (stereo unspecified)
AC50 [1]: > 100 µM

CC(=O)OC(COc1cccc(C)c1)Cn1cnc2ccccc21 (stereo unspecified)
AC50: > 100 µM (inactive) | AC50 [1]: > 100 µM

CSc1ncc(CN2CCCC(C(=O)c3cccc(Cl)c3)C2)cn1 (stereo unspecified)
AC50: > 100 µM (inactive) | AC50 [1]: > 100 µM

O=C(NCc1ccco1)c1ccc(COc2cccc3ccccc23)cc1
AC50: > 100 µM (inactive)

CCN(CC)S(=O)(=O)c1ccc(N2CCCC2)c(NC(=O)c2ccccc2OC)c1
AC50 [1]: > 100 µM

COc1cccc(CNC(=O)CCSCc2ccccc2F)c1
AC50: > 100 µM (inactive) | AC50 [1]: > 100 µM

CCc1nc2ccccc2n1CCc1ccccc1
AC50: > 100 µM (inactive)

CC(C)(CC(=O)O)CC(=O)NCc1c(Cl)cccc1Sc1ccc(Cl)cc1
AC50: > 100 µM (inactive)

CC(=O)Nc1ccc(S(=O)(=O)Nc2cccc(-c3nc4cc(C)ccc4o3)c2)cc1
AC50: > 100 µM (inactive) | AC50 [1]: > 100 µM

COc1ccccc1Cc1c(-c2ccc(F)cc2)nc2ccc(Br)cn12
AC50: > 100 µM (inactive)

CCOC(=O)c1ccc(NC(=O)c2ccc(OC(C)C)c(OC)c2)cc1
AC50 [1]: > 100 µM

O=C(Nc1ccc(Br)cc1)c1cccnc1N1CCCCC1
AC50 [1]: > 100 µM

Cc1ccc2c(N)c(C(=O)c3ccccc3)sc2n1
AC50 [1]: > 100 µM

Cc1ccc(-c2nc(CN3CCCCC3c3cccc(F)c3)c(C)o2)o1 (stereo unspecified)
AC50: > 100 µM (inactive)

O=C(COC(=O)C1CC2C=CC1C2)Nc1ccc([N+](=O)[O-])cc1 (stereo unspecified)
AC50: > 100 µM (inactive) | AC50 [1]: > 100 µM

Cc1ccc(S(=O)(=O)N2CCOCC2)cc1NC(=O)COc1ccc(-c2nnco2)cc1
AC50: > 100 µM (inactive)

CCN(CC)CCNC(=O)c1cc2cc3ccc(OC)cc3nc2o1
AC50: > 100 µM (inactive)

Cc1nn(-c2cccc(Cl)c2)nc1C(=O)O
AC50: > 100 µM (inactive)

COc1ccc(N(C)S(=O)(=O)c2cccc(C(=O)NC3CCCCC3C)c2)cc1 (stereo unspecified)
AC50: > 100 µM (inactive)

O=S(=O)(c1ccccc1)N1CCN=C1SCc1cccc(Cl)c1
AC50: > 100 µM (inactive) | AC50 [1]: > 100 µM

CC(=O)N1CCN(c2nc(-c3cccs3)nc3ccccc23)CC1
AC50: > 100 µM (inactive)

O=C(CCC1CCCN(C(=O)c2ccsc2)C1)N1CCN(c2ccccn2)CC1 (stereo unspecified)
AC50: > 100 µM (inactive)

CN1OC[C@@H]2CN(C(=O)c3ccco3)[C@H](c3ccc(-c4ccc(C#N)cc4)cc3)C[C@@H]21
AC50 [1]: > 100 µM

O=C(O)c1ccc(Oc2ccc([N+](=O)[O-])cc2)c([N+](=O)[O-])c1
AC50: > 100 µM (inactive)

Cn1cc(CN2CCCC(C(=O)c3cccs3)C2)c(-c2cccc(Cl)c2)n1 (stereo unspecified)
AC50: > 100 µM (inactive)

Nc1nc(Nc2ccccc2F)nc(N2CCOCC2)c1[N+](=O)[O-]
AC50: > 100 µM (inactive)

COc1cccc(C(=O)Nc2nnc(S(=O)(=O)N(C)Cc3ccccc3)s2)c1
AC50: > 100 µM (inactive) | AC50 [1]: 50.9 µM

CC(=O)N1CCOc2ccc(S(=O)(=O)N(C)c3ccc(C)cc3)cc21
AC50: > 100 µM (inactive)

CN(C)CCCN(C(=O)CCSc1ccccc1)c1nc2cc3c(cc2s1)OCO3
AC50: > 100 µM (inactive)

CN(C)CCCN(C(=O)COc1ccc(Cl)cc1)c1nc2ccc(F)cc2s1
AC50: > 100 µM (inactive)

O=C(Nc1cccnc1)c1ccc([N+](=O)[O-])o1
AC50: > 100 µM (inactive)

COc1ccc(C(NC(=O)C2CCN(CCOc3ccc(Cl)cc3Cl)CC2)c2ccccc2C)cn1 (stereo unspecified)
AC50 [1]: > 100 µM

Oc1c(Br)cc(Br)cc1Br
AC50: > 100 µM (inactive)

O=C(COc1cc(F)ccc1[N+](=O)[O-])NCCCc1ccccc1
AC50: > 100 µM (inactive)

O=C(CCCn1c(=S)[nH]c2ccsc2c1=O)Nc1ccc2c(c1)OCCO2
AC50: > 100 µM (inactive) | AC50 [1]: > 100 µM

COc1ccc(NC(=O)c2cccs2)cc1C(=O)N1CCN(c2ccccc2)CC1
AC50: > 100 µM (inactive)

CCOc1cccc(-c2cc(-c3n[nH]c(=S)n3CC)c3ccccc3n2)c1
AC50: > 100 µM (inactive)

Cc1ccc(Cl)cc1N1CCN(C(=O)c2ccc3nc[nH]c3c2)CC1
AC50: > 100 µM (inactive)

COC(=O)c1cc(C(=O)c2c(C)cc3ccccn23)cc([N+](=O)[O-])c1
AC50 [1]: > 100 µM

COC(=O)c1sc(C(C)(C)C)cc1CS(=O)(=O)c1ccc(Cl)cc1
AC50: > 100 µM (inactive)

CCS(=O)(=O)N1CCN(c2ccnc3cc(Cl)ccc23)CC1
AC50: > 100 µM (inactive) | AC50 [1]: > 100 µM

CCOc1ccccc1NC(=O)c1cc(SC)ccc1Cl
AC50: > 100 µM (inactive)

COc1ccccc1CN1Cc2ccccc2Oc2ccccc2S1(=O)=O
AC50: > 100 µM (inactive) | AC50 [1]: > 100 µM

O=C1c2ccccc2CSc2c(O)cccc21
AC50: > 100 µM (inactive) | AC50 [1]: 50.8 µM

Cc1ccc(S(=O)(=O)N2CCCCC2C(=O)N2CCN(c3ccccc3F)CC2)cc1 (stereo unspecified)
AC50 [1]: > 100 µM

COc1ccc(CSc2nc3ccccc3c(=O)n2CCCN2CCOCC2)cc1F
AC50: > 100 µM (inactive)

COc1cccc(NC(=O)CSc2nc3c(sc4ccccc43)c(=O)n2CCN(C)C)c1
AC50: > 100 µM (inactive)

CN(c1ccccc1)S(=O)(=O)c1cccc(NC(=O)CCNC(=O)c2ccc([N+](=O)[O-])cc2)c1
AC50: > 100 µM (inactive) | AC50 [1]: > 100 µM

O=C(c1cnc(Cc2c[nH]c3ccccc23)c(I)c1)N1CCCCC1
AC50: > 100 µM (inactive) | AC50 [1]: > 100 µM

O=S(=O)(NCc1ccc2c(c1)OCO2)c1ccc2c(c1)oc1ccccc12
AC50: > 100 µM (inactive) | AC50 [1]: 27.2 µM

COC(=O)c1ccc2nc(-c3ccc(OC)c(OC)c3)c(Cc3ccc(C)cc3)n2c1
AC50: > 100 µM (inactive)
